Results from patent US7915402B2, “Antioxidant inflammation modulators: oleanolic acid derivatives with saturation in the C-ring” (Reata Pharmaceuticals, Inc., priority 2008, dated 2011).
Like-named read-outs stand apart in the source and are kept apart here.

Tests used:
[1] = system: Sprague-Dawley rats; settings: Sprague-Dawley rats, 1,500 mg/m^2/day for 14 days
[2] = system: RAW264.7 macrophages; assay: Cell viability, WST-1 reagent; format: cell-based, mouse; settings: Mus musculus, RAW264.7 (20 ng/ml IFNγ)
Procedure: (§1) FIGS. 1-8 and 32-34. Inhibition of NO Production. RAW264.7 macrophages were pre-treated with DMSO or drugs at various concentrations (nM) for 2 hours, then treated with 20 ng/ml IFNγ for 24 hours. NO concentration in media was determined using a Griess reagent system; cell viability was determined using WST-1 reagent.
(§2) Nitric Oxide production and cell viability. RAW264.7 macrophages were pre-treated with DMSO or drugs for 2 hours, then treated with recombinant mouse IFNγ (Sigma) for 24 hours. NO concentration in media was determined using the Griess reagent system (Promega). Cell viability was determined using WST-1 reagent (Roche).

[3] = system: mice; settings: sesame oil, N=4
[4] = system: IFNγ-induced NO production in RAW264.7 macrophages; assay: Suppression of IFNγ-induced NO production (Griess reagent); format: cell-based, mouse; settings: Mus musculus; RAW264.7, 20 ng/ml IFNγ 24 h, 2 h pre-treatment
Procedure: as §1, §2

[5] = system: HO-1; assay: Nrf2 target gene induction, HO-1 mRNA (qPCR); format: cell-based, human; settings: MDA-MB-435 cells
Procedure: (§3) FIGS. 17-20. Induction of HO-1. MDA-MB-435 human melanoma cells were treated with vehicle (DMSO) or the indicated compounds and concentrations for 16 hours. HO-1 mRNA levels were quantified using qPCR and were normalized relative to a DMSO-treated sample run in parallel. Values are averages of duplicate wells.
as §3, with “FIG. 21.” for “FIGS. 17-20.”, “HO-1, TrxR1 and γ-GCS.” for “HO-1.”, “HO-1, thioredoxin reductase-1 (TrxR1), and γ-glutamylcysteine synthetase (γ-GCS)” for “HO-1”
as §3, with “Nrf2 target gene induction.” for “FIGS. 17-20. Induction of HO-1.”, “HO-1, thioredoxin reductase-1 (TrxR1), γ-glutamylcysteine synthetase (γ-GCS), and ferritin heavy chain” for “HO-1”, “wells. Primer sequences are as follows.” for “wells.”

[6] = system: Ferritin heavy chain; assay: Induction of ferritin heavy chain mRNA (qPCR); format: cell-based, human; settings: MDA-MB-435 cells, 16 hours
Procedure: as §3, with “FIG. 24.” for “FIGS. 17-20.”, “Ferritin Heavy Chain.” for “HO-1.”, “Ferritin heavy chain” for “HO-1”
as §3, with “Nrf2 target gene induction.” for “FIGS. 17-20. Induction of HO-1.”, “HO-1, thioredoxin reductase-1 (TrxR1), γ-glutamylcysteine synthetase (γ-GCS), and ferritin heavy chain” for “HO-1”, “wells. Primer sequences are as follows.” for “wells.”

[7] = system: iNOS; assay: iNOS suppression, Western blot; format: cell-based, mouse; settings: RAW264.7 (20 ng/ml IFNγ)
[8] = system: NQO1; assay: Nrf2 target gene induction, NQO1; format: cell-based, human; settings: MDA-MB-435 cells, 250 nM; fold induction above DMSO control
[9] = system: γ-glutamylcysteine synthetase (γ-GCS); assay: Nrf2 target gene induction, γ-GCS mRNA (qPCR); format: cell-based, human; settings: MDA-MB-435 cells
Procedure: as §3, with “FIG. 21.” for “FIGS. 17-20.”, “HO-1, TrxR1 and γ-GCS.” for “HO-1.”, “HO-1, thioredoxin reductase-1 (TrxR1), and γ-glutamylcysteine synthetase (γ-GCS)” for “HO-1”
as §3, with “FIG. 23.” for “FIGS. 17-20.”, “γ-GCS.” for “HO-1.”, “γ-glutamylcysteine synthetase (γ-GCS)” for “HO-1”
as §3, with “Nrf2 target gene induction.” for “FIGS. 17-20. Induction of HO-1.”, “HO-1, thioredoxin reductase-1 (TrxR1), γ-glutamylcysteine synthetase (γ-GCS), and ferritin heavy chain” for “HO-1”, “wells. Primer sequences are as follows.” for “wells.”

[10] = system: thioredoxin reductase-1 (TrxR1); assay: Nrf2 target gene induction, TrxR1 mRNA (qPCR); format: cell-based, human; settings: MDA-MB-435 cells
Procedure: as §3, with “FIG. 21.” for “FIGS. 17-20.”, “HO-1, TrxR1 and γ-GCS.” for “HO-1.”, “HO-1, thioredoxin reductase-1 (TrxR1), and γ-glutamylcysteine synthetase (γ-GCS)” for “HO-1”
as §3, with “FIG. 22.” for “FIGS. 17-20.”, “TrxR1.” for “HO-1.”, “Thioredoxin reductase-1 (TrxR1)” for “HO-1”, “wells. Compounds 401, 402-19 and 402-53 are comparison compounds (see Example 1).” for “wells.”
as §3, with “Nrf2 target gene induction.” for “FIGS. 17-20. Induction of HO-1.”, “HO-1, thioredoxin reductase-1 (TrxR1), γ-glutamylcysteine synthetase (γ-GCS), and ferritin heavy chain” for “HO-1”, “wells. Primer sequences are as follows.” for “wells.”

[11] = 250 nM, fold induction above DMSO control
[12] = 400 nM, percent of induction observed for 402

Compound: COC(=O)[C@]12CCC(C)(C)C[C@H]1[C@H]1C(=O)CC3[C@@]4(C)C=C(C#N)C(=O)C(C)(C)[C@@H]4CC[C@@]3(C)[C@]1(C)CC2 (stereo partly drawn) [Compound 63101, (4aS,6aR,6bR,8aR,12aR,14aR,14bS)-methyl 11-cyano-2,2,6a,6b,9,9,12a-heptamethyl-10,14-dioxo-1,2,3,4,4a,5,6,6a,6b,7,8,8a,9,10,12a,12b,13,14,14a,14b-icosahydropicene-4a-carboxylate]
- highest dose without significant toxicity relative to the MTD of RTA 402 in this species [1]: 50 fold
- IC50 [2]: 200 nM
- Number of Deaths ([3]; oral gavage QDx14, 10 mg/kg): 0
- Number of Deaths ([3]; oral gavage QDx14, 50 mg/kg): 0
- Number of Deaths ([3]; oral gavage QDx14, 100 mg/kg): 0
- Number of Deaths ([3]; oral gavage QDx14, 250 mg/kg): 0
- IC50 [4]: ~12 nM
- HO-1 induction [5, 11]: 3 fold
- HO-1 induction [5, 12]: 4%
- Ferritin heavy chain mRNA induction: concentration needed compared with unsaturated counterpart (402, 404) [6]: higher concentrations
- iNOS suppr. WB [7]: >90%
- NQO1 induction [8]: 2 fold
- γ-GCS induction [9, 11]: 5 fold
- γ-GCS induction [9, 12]: 53%
- γ-GCS mRNA induction: concentration needed compared with unsaturated counterpart (402, 404) ([9]; 16 hours): higher concentrations
- TrxR1 induction [10, 12]: 47%
- TrxR1 mRNA induction: concentration needed compared with unsaturated counterpart (402, 404) ([10]; 16 hours): higher concentrations
